In ChEMBL document CHEMBL1201862, “PubChem BioAssay data set” (2004):
The source made the active and inactive calls.

Experiments:
Cytochrome P450 2C9 = Cytochrome P450 2C9 (Homo sapiens, UniProt P11712)
Cytochrome P450 1A2 = biological target: T1, Cytochrome P450 1A2 (Homo sapiens, UniProt P05177);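 note: PubChem cytochrome P450 panel assay, CYP1A2 panel member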
T1 sequence (P05177 whole entry): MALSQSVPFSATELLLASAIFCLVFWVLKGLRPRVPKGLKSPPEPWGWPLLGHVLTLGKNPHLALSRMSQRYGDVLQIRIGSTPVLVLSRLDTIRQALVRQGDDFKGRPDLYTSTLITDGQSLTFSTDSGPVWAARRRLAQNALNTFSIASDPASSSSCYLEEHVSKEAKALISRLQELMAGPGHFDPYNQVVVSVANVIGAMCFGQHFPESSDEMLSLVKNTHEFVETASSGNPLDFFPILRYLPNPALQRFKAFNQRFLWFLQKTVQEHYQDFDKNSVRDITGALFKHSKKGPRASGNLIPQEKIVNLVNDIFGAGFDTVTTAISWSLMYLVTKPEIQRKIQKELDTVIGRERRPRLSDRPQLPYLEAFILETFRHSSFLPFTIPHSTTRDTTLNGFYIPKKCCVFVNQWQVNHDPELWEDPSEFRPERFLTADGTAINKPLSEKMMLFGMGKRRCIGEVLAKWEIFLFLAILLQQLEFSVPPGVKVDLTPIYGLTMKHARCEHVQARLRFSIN

[1] = Trypanosoma cruzi growth suppression in host cells – NIH3T3 host cells, beta-gal luminescence, confirmation (AID 2044); type: functional, cell-based;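 note: intracellular parasites grown in NIH/3T3 mouse fibroblasts as host cells; luminescent beta-galactosidase reporter signal from transgenic T. cruzi replicating inside host cells; inhibitors lower the luminescence signal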
[2] = NIH3T3 cell viability loss – ATP luminescence, mouse fibroblasts, counter-screen, dose response (AID 2010); type: functional, cell-based;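 note: cells exposed to compound for about 90 hours before reading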
Cytochrome P450 2C19 = Cytochrome P450 2C19 (Homo sapiens, UniProt P33261); assay: Cytochrome panel assay with activity outcomes. Panel member name: p450-cyp2c19 Compounds with AC50 equal or less than 10 uM are considered active; type: functional; details: read-out: AC50
Cytochrome P450 2C19, sequence (P33261 whole entry): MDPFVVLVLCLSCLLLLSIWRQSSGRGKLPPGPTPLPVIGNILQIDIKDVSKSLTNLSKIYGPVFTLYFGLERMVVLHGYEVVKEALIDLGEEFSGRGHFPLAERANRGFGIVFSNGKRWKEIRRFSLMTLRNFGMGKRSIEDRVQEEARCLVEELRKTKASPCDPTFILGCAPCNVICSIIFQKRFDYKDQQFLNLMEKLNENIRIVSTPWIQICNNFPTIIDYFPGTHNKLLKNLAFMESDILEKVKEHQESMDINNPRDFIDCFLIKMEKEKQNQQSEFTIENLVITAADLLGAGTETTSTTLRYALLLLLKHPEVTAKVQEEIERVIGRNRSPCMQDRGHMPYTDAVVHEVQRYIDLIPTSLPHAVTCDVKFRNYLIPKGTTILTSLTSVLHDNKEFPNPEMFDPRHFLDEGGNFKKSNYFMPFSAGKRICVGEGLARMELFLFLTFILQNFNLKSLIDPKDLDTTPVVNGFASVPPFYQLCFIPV

Cytochrome P450 3A4 = Cytochrome P450 3A4 (Homo sapiens, UniProt P08684);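 note: CYP3A4 tested as one member of a cytochrome P450 panel screen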
Cytochrome P450 3A4, sequence (P08684 whole entry): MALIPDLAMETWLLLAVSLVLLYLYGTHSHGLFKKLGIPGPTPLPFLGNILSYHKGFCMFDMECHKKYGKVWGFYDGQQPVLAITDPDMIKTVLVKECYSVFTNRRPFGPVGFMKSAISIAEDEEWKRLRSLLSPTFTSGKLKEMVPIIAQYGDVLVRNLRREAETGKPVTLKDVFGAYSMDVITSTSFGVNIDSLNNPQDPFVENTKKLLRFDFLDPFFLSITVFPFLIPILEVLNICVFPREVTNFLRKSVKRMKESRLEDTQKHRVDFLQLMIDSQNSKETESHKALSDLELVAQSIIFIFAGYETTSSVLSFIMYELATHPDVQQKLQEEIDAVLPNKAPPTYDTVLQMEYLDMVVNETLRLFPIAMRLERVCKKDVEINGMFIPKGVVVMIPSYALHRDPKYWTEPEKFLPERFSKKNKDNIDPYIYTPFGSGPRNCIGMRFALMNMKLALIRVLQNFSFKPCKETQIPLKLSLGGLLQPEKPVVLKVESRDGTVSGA

INS1 = assay: INS-1E survival protection against cytokine death – cell-based, luminescence, retest, dose response (AID 449756); type: functional; details: Rattus norvegicus;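 note: cell death triggered by IL-1 beta plus TNF-alpha plus IFN-gamma mixture; protective hits raise ATP signal compared with cytokine alone wells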
[3] = Luminescence Cell-Based Dose Retest to Confirm Inhibitors of Cancer Stem Cells. [Related pubchem assays (depositor defined):AID2717, AID2721]; type: functional; details: Homo sapiens

Cytochrome P450 2C9, sequence (P11712 whole entry): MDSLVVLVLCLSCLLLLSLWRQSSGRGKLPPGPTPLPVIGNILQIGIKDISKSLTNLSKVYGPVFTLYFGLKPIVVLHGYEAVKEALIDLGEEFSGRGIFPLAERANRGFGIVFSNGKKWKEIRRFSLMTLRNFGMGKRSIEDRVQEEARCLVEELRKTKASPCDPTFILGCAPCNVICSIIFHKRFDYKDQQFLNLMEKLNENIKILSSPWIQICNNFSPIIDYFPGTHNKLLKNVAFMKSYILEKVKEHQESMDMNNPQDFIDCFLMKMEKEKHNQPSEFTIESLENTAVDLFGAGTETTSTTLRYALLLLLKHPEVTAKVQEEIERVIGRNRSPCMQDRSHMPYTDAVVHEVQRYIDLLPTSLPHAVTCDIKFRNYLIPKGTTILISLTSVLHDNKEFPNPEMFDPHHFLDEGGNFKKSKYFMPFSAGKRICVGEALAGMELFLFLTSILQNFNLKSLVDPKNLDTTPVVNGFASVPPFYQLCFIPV

O=C(O)c1ccccc1-c1ccccc1C(=O)Nc1ccc2c(c1)Cc1ccccc1-2
AC50 (Cytochrome P450 2C9): 3.16 µM (inconclusive)

CCc1cc2cc(C)c(C)cc2nc1SCC(=O)NNC(=O)c1ccco1
AC50 (Cytochrome P450 1A2): 0.794 µM (inconclusive)

COc1ccccc1C(=O)Nn1c(C2CCC2)nc2ccccc2c1=O
EC50 [1]: 2.13 µM (active)
EC50 [2]: > 30 µM (not active)

C[C@@]12CC[C@H]3[C@@H](CC[C@@H]4C[C@H](O)CC[C@]43C)[C@H]1CC[C@H]2O
AC50 (Cytochrome P450 1A2): 15.8 µM (inconclusive)
AC50 (Cytochrome P450 2C19): 31.6 µM (inconclusive)
AC50 (Cytochrome P450 3A4): 10 µM (inconclusive)
AC50 (Cytochrome P450 2C9): 25.1 µM (inconclusive)

Cc1cnc(CNc2ccnc(-c3ccoc3)n2)cn1
AC50 (Cytochrome P450 3A4): 25.1 µM (inconclusive)

O=C(/C=C\NCC(=O)c1ccccc1)c1ccccc1
AC50 (Cytochrome P450 2C9): 1.78 µM (inconclusive)

COc1ccc(C2NC(=O)c3sc4nc(C)c(C(C)=O)c(-c5ccc(Cl)cc5)c4c3N2)cc1 (stereo not given)
AC50 (Cytochrome P450 2C19): 2 µM (inconclusive)

CCc1c(C)nc2c(-c3ccccc3)c(C)nn2c1Nc1ccc(NC(C)=O)cc1
EC50 [1]: 1.29 µM (active)
EC50 [2]: > 60 µM (not active)

O=C1OC(OC2CCCCC2)(c2ccccc2)c2ccccc21 (stereo not given)
AC50 (Cytochrome P450 3A4): 15.8 µM (inconclusive)
AC50 (Cytochrome P450 2C9): 15.8 µM (inconclusive)

CCC(=O)Nc1cccc(NC(=O)CSc2nnnn2Cc2ccccc2)c1
AC50 (Cytochrome P450 3A4): 3.55 µM (inconclusive)
AC50 (Cytochrome P450 2C9): 5.01 µM (inconclusive)

FC(F)(F)c1ccccc1-c1ccc2ncnc(NCc3cccs3)c2c1
AC50 (Cytochrome P450 2C9): 1 µM (inconclusive)

CCOC(=O)Cn1cc(C(=O)c2ccccc2F)c2ccccc21
AC50 (Cytochrome P450 3A4): 35.5 µM (inconclusive)

Clc1ccccc1OCCCCn1ccnc1
EC50 [1]: 2.05 µM (active)
EC50 [2]: > 60 µM (not active)

Nc1ccccc1/N=N\c1c(S(=O)(=O)O)cc2cc(S(=O)(=O)O)cc(O)c2c1O
AC50 (Cytochrome P450 1A2): 6.31 µM (inconclusive)

CCOc1ccc(C(F)(F)F)cc1NC(=O)c1ccc(OC)c([N+](=O)[O-])c1
AC50 (Cytochrome P450 2C19): 0.282 µM (inconclusive)
AC50 (Cytochrome P450 3A4): 22.4 µM (inconclusive)

NNc1ncnc2scc(-c3ccc(Cl)cc3)c12
AC50 (INS1): 6.34 µM (active)

O=C(Nc1ccccc1)N1CC2(CCN(C(=O)c3ccncc3)CC2)C1
AC50 (Cytochrome P450 1A2): 10 µM (inconclusive)
AC50 (Cytochrome P450 3A4): 25.1 µM (inconclusive)

COCCNC(=O)c1onc(CSc2ccccc2F)c1C(=O)O
AC50 (Cytochrome P450 2C19): 0.141 µM (inconclusive)
AC50 (Cytochrome P450 3A4): 35.5 µM (inconclusive)

COc1ccccc1NC(=O)Cn1nnc(-c2ccccc2NC(=O)c2cc3ccccc3oc2=O)n1
AC50 (Cytochrome P450 1A2): 15.8 µM (inconclusive)
AC50 (Cytochrome P450 2C9): 0.794 µM (inconclusive)

O=C(O)c1ccccc1N[C@H](c1ccccc1)c1ccc2cccnc2c1O
AC50 (Cytochrome P450 1A2): 1.58 µM (inconclusive)
AC50 (Cytochrome P450 2C9): 5.01 µM (inconclusive)

CN1CCN(C(=O)COc2ccc(S(=O)(=O)N(C)Cc3ccccc3)cc2)CC1
EC50 [1]: 0.189 µM (active)
EC50 [2]: > 60 µM (not active)

C[C@@H](C(=O)NCc1cccc2ccccc12)[C@H]1C[C@]1(C)[C@H](NC(=O)OCc1ccccc1)c1ccccc1
AC50 (Cytochrome P450 1A2): 25.1 µM (inconclusive)

Oc1ccc2c3c1O[C@H]1c4c(c5ccccc5n4Cc4ccccc4)C[C@]4(O)[C@H](C2)N(CC2CC2)CC[C@@]314
AC50 (Cytochrome P450 1A2): 31.6 µM (inconclusive)

N=C(N)SCc1ccc(Cl)cc1Cl.O=[N+]([O-])c1c(O)c(Cl)cc(Cl)c1Cl
AC50 (Cytochrome P450 2C9): 7.94 µM (inconclusive)

CCOC(=O)c1ccc(Nc2cc(C)nc(-c3ccccc3)n2)cc1
AC50 [3]: 2.1 µM (active)

O=c1cnc2cnc(Nc3ccccc3)nc2n1CCc1ccccc1
AC50 (Cytochrome P450 2C9): 0.251 µM (inconclusive)

O=c1c(-c2ccc(Cl)cc2)nc2cncnc2n1Cc1ccccc1Cl
AC50 (Cytochrome P450 1A2): 1.26 µM (inconclusive)
AC50 (Cytochrome P450 3A4): 12.6 µM (inconclusive)

O=C(O)COc1ccc(-c2nccc(-c3cccs3)n2)cc1
AC50 (Cytochrome P450 1A2): 15.8 µM (inconclusive)
AC50 (Cytochrome P450 2C19): 31.6 µM (inconclusive)

CCOc1ncnc2c1oc1nc(CC(C)C)c3c(c12)CC(C)(C)OC3
AC50 (Cytochrome P450 1A2): 22.4 µM (inconclusive)
AC50 (Cytochrome P450 2C19): 39.8 µM (inconclusive)

CC1(C)C(C=C(Cl)Cl)C1C(=O)Nc1ccc([N+](=O)[O-])cc1 (stereo not given)
AC50 (INS1): 7.67 µM (active)

Cn1c(-c2ccccc2)cc2c3no[n+]([O-])c3ccc21
EC50 [1]: 0.707 µM (active)
EC50 [2]: 8.01 µM (active)
AC50 (INS1): 2.09 µM (active)
